What was measured:
endogenous SREBPs = test: Luciferase reporter assay (pSRE-Luc, normalized by β-gal) in HEK293 cells; type: cell-based, human; set-up: Luc/Gal: dose or concentration left out as unconfirmed
Protocol: On day 0, HEK293 cells were plated out in triplicate at a density of 5×10^3/well onto a 96-well plate in a Dulbecco's modified Eagle's medium with 10% fetal bovine serum, 100 units/mL penicillin, and 100 μg/mL streptomycin sulfate. On day 2, the cells were transiently co-transfected with the following plasmids by using Lipofectamine reagent (Invitrogen): 0.4 μg/well pSRE-Luc (an SRE-1-driven luciferase reporter construct; Hua et al., 1995 J Biol Chem 270, 29422-7), and 0.1 μg/well a b-gal reporter in which the expression of β-gal is controlled by an actin promoter in a final volume of […]. After incubation for 5 hrs at 37° C., the cells were washed with phosphate-buffered saline and then incubated in 100 μl of Dulbecco's modified Eagle's medium with 10% lipid-depleted serum, […] penicillin, and 100 μg/mL streptomycin sulfate in the absence or presence of fatostatin A. After 20 hrs of incubation, the cells in each well were lysed with 20 μL of 1× Reporter Lysis Buffer (Promega), and aliquots were used for measurement of luciferase (10 μL) and β-galactosidase (10 μL) activities. For luciferase assay, photon production was detected as counts per second in a Wallac 1420 ARVOsx multilabel counter (PerkinElmer). For β-galactosidase assays, hydrolysis of O-nitrophenyl-β-D-galactosidase was measured after incubation for 0.5 h at 37° C. by a microplate reader at the wave length of 405 nm (Tecan). The luciferase activity (counts per second) was normalized by the activity of β-galactosidase (OD units). For overexpression of the N-terminal matured form of SREBP-1c, pCMV-SREBP-1c (1-436) was co-transfected with pSRE-Luc. pSRE-Luc and pCMV-SREBP-1c (1-436) were provided by J. L. Goldstein (University of Texas Southwestern Medical Center). […]

3T3-L1 cells = test: adipogenesis assay (formation of oil droplets); type: cell-based, mouse; set-up: key: +: The analogues that completely inhibited the formation of oil droplets in cells were scored to be adipogenesis-inhibiting analogues; conditions: formation of oil droplets in cells
Protocol: The adipogenesis assay was performed as described (Choi et al., 2003).

[1] = entries 1, 19-34 (FIG. 16), None = 15.0759
[2] = entries 1-18 (FIG. 15), none = 9.4426
[3] = entries 1, 35-39 (FIG. 17), None = 18
[4] = entries 1, 40-44 (FIG. 17), None = 8.2181

| SMILES | Luc/Gal (endogenous SREBPs; [1]) | Luc/Gal (endogenous SREBPs; [2]) | further results |
| --- | --- | --- | --- |
| CCCc1cc(-c2nc(-c3cccs3)cs2)ccn1 [Compound 34, 2-propyl-4-(4-(thiophen-2-yl)thiazol-2-yl)pyridine] | 12.1593 |  | Inhibition of adipogenesis (3T3-L1 cells): + |
| CCCc1cc(-c2nc(-c3ccc(OCC(=O)OC)cc3)cs2)ccn1 [Compound 10, methyl 2-(4-(2-(2-propylpyridin-4-yl)thiazol-4-yl)phenoxy)acetate] |  | 10.7717 |  |
| CCc1cc(-c2nc(-c3ccc(C)cc3)cs2)ccn1 [Compound 37, 2-ethyl-4-(4-p-tolylthiazol-2-yl)pyridine] |  |  | Luc/Gal (endogenous SREBPs; [3]): 9.87 |
| CCCc1cc(-c2nc(-c3ccc(Br)cc3)c(C(=O)OC)s2)ccn1 [Compound 23, methyl 4-(4-bromophenyl)-2-(2-propylpyridin-4-yl)thiazole-5-carboxylate] | 8.1137 |  | Inhibition of adipogenesis (3T3-L1 cells): + |
| CCCc1cc(-c2nc(-c3ccc(F)cc3F)cs2)ccn1 [Compound 15, 4-(4-(2,4-difluorophenyl)thiazol-2-yl)-2-propylpyridine] |  | 10.8383 |  |
| CCCc1cc(-c2nc(-c3ccc(F)cc3)cs2)ccn1 [Compound 14, 4-(4-(4-fluorophenyl)thiazol-2-yl)-2-propylpyridine] |  | 9.6605 |  |
| CCCc1cc(-c2nc(-c3ccc(Br)cc3)c(C(=O)NC(C)C)s2)ccn1 [Compound 30, 4-(4-bromophenyl)-N-isopropyl-2-(2-propylpyridin-4-yl)thiazole-5-carboxamide] | 16.0226 |  |  |
| CCCc1cc(-c2nc(-c3ccc(Cl)cc3)cs2)ccn1 [Compound 4, 4-(4-(4-chlorophenyl)thiazol-2-yl)-2-propylpyridine] |  | 6.3808 |  |
| CCc1ccc(-c2csc(-c3ccncc3)n2)cc1 [Compound 5, 4-(4-(4-ethylphenyl)thiazol-2-yl)pyridine] |  | 7.6190 |  |
| CCCc1cc(-c2nc(-c3ccc(C)cc3)c(C(=O)O)s2)ccn1 [Compound 36, 2-(2-propylpyridin-4-yl)-4-p-tolylthiazole-5-carboxylic acid] |  |  | Luc/Gal (endogenous SREBPs; [3]): 18.99 |
| CCCc1cc(-c2nc(-c3ccc(Cl)c(Cl)c3)cs2)ccn1 [Compound 13, 4-(4-(3,4-dichlorophenyl)thiazol-2-yl)-2-propylpyridine] |  | 5.2391 |  |
| CCCc1cc(-c2nc(-c3ccc(O)cc3)cs2)ccn1 [Compound 9, 4-(2-(2-propylpyridin-4-yl)thiazol-4-yl)phenol] |  | 14.5234 | Inhibition of adipogenesis (3T3-L1 cells): + |
| CCCc1cc(-c2nc(-c3ccc(NCc4ccccc4)cc3)cs2)ccn1 [Compound 20, N-benzyl-4-(2-(2-propylpyridin-4-yl)thiazol-4-yl)benzenamine] | 5.6748 |  | Inhibition of adipogenesis (3T3-L1 cells): + |
| CCCc1cc(-c2nc(-c3ccc(NC(=O)OC(C)(C)C)cc3)cs2)ccn1 [Compound 40, tert-butyl 4-(2-(2-propylpyridin-4-yl)thiazol-4-yl)phenylcarbamate] |  |  | Luc/Gal (endogenous SREBPs; [4]): 2.4390 |
| CCCc1cc(-c2nc(-c3ccc(OC)cc3)cs2)ccn1 [Compound 24, 4-(4-(4-methoxyphenyl)thiazol-2-yl)-2-propylpyridine] | 11.0367 |  |  |
| CCCc1cc(-c2nc(-c3ccccc3)cs2)ccn1 [Compound 3, 4-(4-phenylthiazol-2-yl)-2-propylpyridine] |  | 7.4643 |  |
| CCCc1cc(-c2nc(-c3ccc(N)cc3)cs2)ccn1 [Compound 16, 4-(2-(2-propylpyridin-4-yl)thiazol-4-yl)benzenamine] |  | 10.3338 | Inhibition of adipogenesis (3T3-L1 cells): + |
| CCCc1cc(-c2nc(-c3ccccc3OC)cs2)ccn1 [Compound 26, 4-(4-(2-methoxyphenyl)thiazol-2-yl)-2-propylpyridine] | 8.3046 |  | Inhibition of adipogenesis (3T3-L1 cells): + |
| CCCc1cc(-c2nc(-c3ccc(Br)cc3)cs2)ccn1 [Compound 2, 4-(4-(4-bromophenyl)thiazol-2-yl)-2-propylpyridine] |  | 4.5130 |  |
| CCCc1cc(-c2nc(-c3ccc(OC(=O)c4ccccc4)cc3)cs2)ccn1 [Compound 8, 4-(2-(2-propylpyridin-4-yl)thiazol-4-yl)phenylbenzoate] |  | 7.7585 | Inhibition of adipogenesis (3T3-L1 cells): + |

| SMILES | Luc/Gal (endogenous SREBPs; [1]) | Luc/Gal (endogenous SREBPs; [2]) | further results |
| --- | --- | --- | --- |
| CCCc1cc(-c2nc(-c3cccc(O)c3)cs2)ccn1 [Compound 28, 3-(2-(2-propylpyridin-4-yl)thiazol-4-yl)phenol] | 12.7791 |  |  |
| CCCc1cc(-c2nc(-c3ccccc3)c(C(=O)O)s2)ccn1 [Compound 38, 4-phenyl-2-(2-propylpyridin-4-yl)thiazole-5-carboxylic acid] |  |  | Luc/Gal (endogenous SREBPs; [3]): 22.66 |
| CCCc1cc(-c2nc(-c3ccc(NS(=O)(=O)c4cccs4)cc3)cs2)ccn1 [Compound 44, N-(4-(2-(2-propylpyridin-4-yl)thiazol-4-yl)phenyl)-2-thiophenesulfonamide] |  |  | Luc/Gal (endogenous SREBPs; [4]): 1.8538 |
| CCCc1cc(-c2nc(-c3ccc(C)cc3)c(C(=O)OC)s2)ccn1 [Compound 39, methyl 2-(2-propylpyridin-4-yl)-4-p-tolylthiazole-5-carboxylate] |  |  | Luc/Gal (endogenous SREBPs; [3]): 14.93 |
| CCCc1cc(-c2nc(-c3ccccc3O)cs2)ccn1 [Compound 29, 2-(2-(2-propylpyridin-4-yl)thiazol-4-yl)phenol] | 8.2379 |  |  |
| Clc1ccc(-c2csc(-c3ccncc3)n2)cc1 [Compound 31, 4-(4-(4-chlorophenyl)thiazol-2-yl)pyridine] | 16.9971 |  |  |
| Cc1ccc(-c2csc(-c3ccccc3)n2)cc1 [Compound 27, 2-phenyl-4-p-tolylthiazole] | 13.8222 |  |  |
| CCCc1cc(-c2nc(-c3ccc(NC(C)=O)cc3)cs2)ccn1 [Compound 18, N-(4-(2-(2-propylpyridin-4-yl)thiazol-4-yl)phenyl)acetamide] |  | 11.7685 | Inhibition of adipogenesis (3T3-L1 cells): + |
| CCCc1cc(-c2ccc(-c3ccc(C)cc3)cc2)ccn1 [Compound 35] |  |  | Luc/Gal (endogenous SREBPs; [3]): 11.36; Inhibition of adipogenesis (3T3-L1 cells): + |
| CCCc1cc(-c2nc(-c3ccc(NS(=O)(=O)c4ccc(C)cc4)cc3)cs2)ccn1 [Compound 42, 4-(2-(2-propylpyridin-4-yl)thiazol-4-yl)-N-tosylbenzenamine] |  |  | Luc/Gal (endogenous SREBPs; [4]): 3.3957 |
| CCCc1cc(-c2nc(-c3ccc(NCC4CC4)cc3)cs2)ccn1 [Compound 21, N-(cyclopropylmethyl)-4-(2-(2-propylpyridin-4-yl)thiazol-4-yl)benzenamine] | 6.4378 |  | Inhibition of adipogenesis (3T3-L1 cells): + |
| Cc1ccc(-c2csc(-c3ccncc3)n2)cc1 [Compound 6, 4-(4-p-tolylthiazol-2-yl)pyridine] |  | 13.4689 |  |
| CCCc1cc(-c2nc(-c3ccc(Br)cc3)c(C(=O)O)s2)ccn1 [Compound 22, 4-(4-bromophenyl)-2-(2-propylpyridin-4-yl)thiazole-5-carboxylic acid] | 21.5911 |  |  |
| COc1ccc(-c2nc(-c3ccc(Cl)cc3)cs2)cc1OC [Compound 12, 4-(4-chlorophenyl)-2-(3,4-dimethoxyphenyl)thiazole] |  | 5.9214 |  |
| CCCc1cc(-c2nc(-c3cccc(OC)c3)cs2)ccn1 [Compound 25, 4-(4-(3-methoxyphenyl)thiazol-2-yl)-2-propylpyridine] | 7.8536 |  |  |
| COc1ccc(-c2csc(-c3ccncc3)n2)cc1 [Compound 7, 4-(4-(4-methoxyphenyl)thiazol-2-yl)pyridine] |  | 18.3174 |  |
| CCc1cc(-c2nc(-c3ccc(Cl)cc3)cs2)ccn1 [Compound 32, 4-(4-(4-chlorophenyl)thiazol-2-yl)-2-ethylpyridine] | 9.5798 |  |  |
| CCCc1cc(-c2nc(-c3ccc(NC4CCCCC4)cc3)cs2)ccn1 [Compound 41, N-cyclohexyl-4-(2-(2-propylpyridin-4-yl)thiazol-4-yl)benzenamine] |  |  | Luc/Gal (endogenous SREBPs; [4]): 6.5229 |
| Clc1ccc(-c2csc(-c3ccccc3)n2)cc1 [Compound 33, 4-(4-chlorophenyl)-2-phenylthiazole] | 17.8175 |  |  |
| CCCc1cc(-c2nc(-c3ccc(NS(=O)(=O)c4cccc5cccnc45)cc3)cs2)ccn1 [Compound 43, N-(4-(2-(2-propylpyridin-4-yl)thiazol-4-yl)phenyl)-8-quinolinesulfonamide] |  |  | Luc/Gal (endogenous SREBPs; [4]): 2.8506 |
